Experimental data reported in patent US6057294A, “Peptide” (Northern Sydney Area Health Service of Pacific Highway, priority 1995, dated 2000).
Ends that are not written are not given here.

Tests used:
[1] = system: adjuvant induced arthritis in rats; test: Adjuvant induced arthritis in rats; assay type: in vivo, rat; conditions: for EFFECT: peptides 7 mg/rat, CS 50 mg/kg, DXM 2 mg/kg, given with MTB adjuvant; for tail thickness: n = 5
[2] = system: 2B4.11 T-cell activation (IL-2 production); test: Antigen presentation assay (IL-2 production by 2B4.11 T-cells, CTLL proliferation readout); assay type: cell-based; conditions: 100 μM
Description: An antigen presentation assay (described below) examined the ability of a number of peptides to inhibit T-cell activation following antigen recognition, by measuring the product of T-cell activation, Interleukin-2 (IL-2).
Material. The following cell lines were used: 2B4.11, a T-cell hybridoma that expresses a complete antigen receptor on the cell surface (Samelson et al., 1983) and produces IL-2 following antigen recognition (cytochrome c). Interleukin-2 dependent T-cell line (CTLL) for conventional biological IL-2 assays; and the B-cell hybridoma cell line LK 35.2 (LK, I-E^k bearing; Kappler et al., 1982) which acts as the antigen presenting cell. The hybridomas were grown in TCM. Cytochrome c (Sigma, USA) was added in the media to give a final concentration of 50 μM in the antigen presenting assay.
Peptides examined included: core peptide, seven other control peptides from a variety of sources having an equivalent length to core peptide and peptides A, B, C, D, E and F. The final concentration of the peptides in the antigen presentation assay was examined at several levels ranging from 10 μM to 100 μM.
Method. […] Supernatants were recovered and IL-2 content determined by CTLL proliferation. […] In addition to measuring ^3 H-thymidine incorporation, IL-2 measurements (IU/ml) were also determined. […]

[3] = system: diabetes in NOD/Lt (F) mice; test: Cyclophosphamide induced diabetes in NOD/Lt (F) mice; assay type: in vivo, mouse; conditions: for PERCENTAGE OF MICE DEVELOPING DIABETES: 250 μg s.c. on Day -1, 0 and 1, n = 16
Method: In yet another model of T-cell mediated disease the effects of subcutaneously injected core peptide on the induction of diabetes in NOD/Lt (F) mice was tested "blind" by an independent experimenter (Prof L Harrison, WEHI, Melbourne). NOD/Lt(F) mice 10 weeks old at experimental Day 0. This is a high-incidencestrain commonly used as an animal model for diabetes. Core peptide dissolved in squalane at a stock concentration of 3.33 mg/ml. Ovalbumin used as a control was suspended in squalane at a stock concentration of 3.33 mg/ml. Peptide and ovalbumin were "solubilised" just prior to injection, with vortexing. A total of 250 μg (75 μl) was injected subcutaneously on the right flank on Day -1, 0 and 1. Mice were given intraperitoneal cyclophosphamide in water at 300 mg/kg on Day 0. Blood glucose measurements were taken on Day 0, 10, 14 and 21. There were 16 mice in the treatment group and 16 in the ovalbumin control group.

[4] = system: experimental allergic neuritis in Lewis rats; test: Experimental allergic neuritis (EAN); assay type: in vivo, rat; conditions: peptide added to immunisation emulsion at 70 mg/ml
[5] = system: TCR on 2B4.11 cells; test: TCR assembly and cell surface expression on T-cells by flow cytometry; assay type: cell-based
Method: The T-cell hybridoma 2B4.11 which expresses a complete TCR on the cell surface was used as a positive control to assess the effects of peptides on TCR expression. The cells were grown in TCM. The β-deficient variant 21.2.2 and the β- and .zeta.-deficient cell line 3.12.29, derived by repetitive subcloning of 2B4.11 cells (Sussman et al., 1988) and lacking TCR expression were used as negative controls.
Peptides tested included core peptide, lipopeptides and a peptide from tumor necrosis factor receptor termed 558 (used as a negative control). […]
The following antibodies were used for immuno-precipitation and flow cytometry analysis: Mouse IgG2a monoclonal antibody (MAb) against TCR-α chain of the T-cell hybridoma 2B4 (A2B4-2, Samelson et al., 1983), MAb against 2B4.11 TCR-β chain (K)25), hamster IgG anti-CD3-ε MAb (145-2C11 [2C11], Leo et al., 1987), rabbit anti-CD3-ε polyclonal antiserum raised against purified mouse CD3-ε (127, Minami et al., 1987), anti-CD3-δ polyclonal antibody (R9) raised in goat immunized with a COOH-terminal peptide of the mouse CD3-δ chain (Samelson et al., 1986).
FACS analysis: 1×10^6 (2B4.11, 21.2.2) cells were incubated with a number of separate peptides and lipopeptides in a final concentration of 10 μM overnight. The cells were then wvashed with PBS and incubated with 50 μl primary antibody (A2B4 or 2C11) for 30 mins at 4° C. […]

Compound: C[C@@H]1C[C@H]2[C@@H]3CCC4=CC(=O)C=C[C@]4(C)[C@@]3(F)[C@@H](O)C[C@]2(C)[C@@]1(O)C(=O)CO [DXM, dexamethasone, reference compound]
- onset of arthritis delayed by ([1]; 2 mg/kg): 3 to 4 days
- EFFECT [1]: No effect

Compound: GLRILLLKV [core peptide]
- reduction in IL-2 production compared to control [2]: 15%-30%
- EFFECT OF PEPTIDE ([1]; 1.7 mg): No effect
- EFFECT OF PEPTIDE ([1]; 3.5 mg): Protective
- EFFECT OF PEPTIDE ([1]; 7 mg): Protective
- tail thickness ([1]; DAY 5, MTB + peptide): 7.62 mm
- tail thickness ([1]; DAY 10, MTB + peptide): 8.24 mm
- tail thickness ([1]; DAY 15, MTB + peptide): 8.76 mm
- tail thickness ([1]; DAY 20, MTB + peptide): 8.96 mm
- tail thickness ([1]; DAY 25, MTB + peptide): 9.10 mm
- ulceration and inflammation at the site of injection ([1]; compared with MTB alone): not present
- effect on adjuvant arthritis ([1]; comparison among peptides): Best results
- animals with no evidence of arthritis ([1]; first experiment, 3 rats per group, 0.1 ml suspension in adjuvant, after 18 days): 2/3
- EFFECT [1]: Protective
- difference in tail measurements versus saline injected rats ([1]; rat, in vivo): not statistically significant
- PERCENTAGE OF MICE DEVELOPING DIABETES ([3]; DAY 0): 0%
- PERCENTAGE OF MICE DEVELOPING DIABETES ([3]; DAY 10): 0%
- PERCENTAGE OF MICE DEVELOPING DIABETES ([3]; DAY 14): 5%
- PERCENTAGE OF MICE DEVELOPING DIABETES ([3]; DAY 21): 12%
- effect on the induction of autoimmune beta cell destruction (diabetes) ([3]; mouse, in vivo): protective effect
- induction and clinical severity of EAN [4]: delayed induction and clinical severity of disease
- cell surface expression of TCR ([5]; 10 μM, overnight, 2B4.11 cells): did not alter the cell surface expression
- T-cell surface antigen receptor expression ([5]; 100 μM, incubation 1-10 days): no change in T-cell surface antigen receptor expression

Compound: Ovalbumin: Ovalbumin used as a control, suspended in squalane [reference compound]
- PERCENTAGE OF MICE DEVELOPING DIABETES ([3]; DAY 0): 0%
- PERCENTAGE OF MICE DEVELOPING DIABETES ([3]; DAY 10): 0%
- PERCENTAGE OF MICE DEVELOPING DIABETES ([3]; DAY 14): 42%
- PERCENTAGE OF MICE DEVELOPING DIABETES ([3]; DAY 21): 65%

Compound: CCCCCCCCCCCCCCCC(=O)O [Palmitic acid, reference compound]
- effect on IL-2 production [2]: did not affect IL-2 production
